Read-outs that look alike come from different tables or passages of the source. Marks after values point to notes of the source that are not given here.
What was measured:
[1] = Plasma pharmacokinetics of sunitinib and N-desethyl sunitinib; format: in vivo, human; conditions: for half-life: n=1
ABCB1 = conditions: cited from earlier work
ABCG2 = conditions: cited from earlier work
[2] = tested on: solid or hematologic malignancy; test: Response assessment after every two cycles; format: in vivo, human; conditions: 17 patients evaluable for response
[3] = phase III trial, 50mg/day, cited from earlier work
CYP3A4 = conditions: cited from earlier work
[4] = human, in vivo, 6 weeks (cycle 1)

## CCNCCNC(=O)c1c(C)[nH]c(/C=C2\C(=O)Nc3ccc(F)cc32)c1C [N-desethyl sunitinib]
[1]; human, in vivo
  decrease in AUC0–24h compared to NNRTI: 40%
  decrease in Cmax compared to NNRTI: 48%
  increase in AUC0–24h compared to NNRTI: 390%
  increase in Cmax compared to NNRTI: 410%
ABCB1
  substrate for ABCB1 drug transporter: substrates
ABCG2
  substrate for ABCG2 drug transporter: substrates

## CCN(CC)CCNC(=O)c1c(C)[nH]c(/C=C2\C(=O)Nc3ccc(F)cc32)c1C [sunitinib, Sunitinib malate]
[1]; Mann–Whitney U-test, p=0.013
  correlation between hand-foot syndrome and elevated Cmin,ss: There was a correlation
[1]; Ritonavir group, sunitinib 37.5 mg/day, Cycle 1 Day 1, mean±SD
  Cmax: 19.9±5.9 (6) ng/mL
[1]; Ritonavir group, sunitinib 37.5 mg/day, actual values (n=2)
  T1/2: 86.8 h
[1]; human, in vivo, 37.5 mg/day
  AUC(0-t): 338 ± 99 ng·h/mL
  fraction unbound: 0.067 ± 0.021
[1]; human, plasma, oral, 25 mg/day, T1/2, Ritonavir group, sunitinib 25 mg/day
  half-life: 66 h
[1]; human, plasma, oral, 50 mg/day
  Tmax: 7.5 h
[1]; human, plasma, oral, 50 mg/day, T1/2, NNRTI group, sunitinib 50 mg/day
  half-life: 63.6 h
[2]
  objective response to therapy: No patient experienced an objective response
human, in vivo
  ALT/AST Elevation All Grade (%): 2 (11)
  ALT/AST Elevation ≥G3 (%): 0 (0)
  Abdominal Pain All Grade (%): 2 (11)
  Abdominal Pain ≥G3 (%): 0 (0)
  Anemia All Grade (%): 3 (16)
  Anemia ≥G3 (%): 1 (5)
  Anorexia ≥G3 (%): 0 (0)
  Constipation All Grade (%): 2 (11)
  Constipation ≥G3 (%): 0 (0)
  Cough ≥G3 (%): 0 (0)
  Diarrhea All Grade (%): 9 (47)
  Diarrhea ≥G3 (%): 1 (5)
  Epistaxis ≥G3 (%): 0 (0)
  Fatigue All Grade (%): 8 (42)
  Fatigue ≥G3 (%): 0 (0)
  Headache All Grade (%): 2 (11)
  Headache ≥G3 (%): 0 (0)
  Hypertension All Grade (%): 4 (21)
  Hypertension ≥G3 (%): 0 (0)
  Hypopigmentation All Grade (%): 2 (11)
  Hypopigmentation ≥G3 (%): 0 (0)
  Mucositis All Grade (%): 3 (16)
  Mucositis ≥G3 (%): 0 (0)
  Myalgia/Limb Pain All Grade (%): 2 (11)
  Myalgia/Limb Pain ≥G3 (%): 0 (0)
  Nausea/Vomiting All Grade (%): 6 (32)
  Nausea/Vomiting ≥G3 (%): 0 (0)
  Neutropenia All Grade (%): 10 (53)
  Neutropenia ≥G3 (%): 6 (32)
  Rash ≥G3 (%): 0 (0)
  Thrombocytopenia All Grade (%): 3 (16)
  Thrombocytopenia ≥G3 (%): 0 (0)
  Wound Dehiscence All Grade (%): 2 (11)
  Wound Dehiscence ≥G3 (%): 1 (5)
human, in vivo, 6 weeks
  ALT/AST Elevation All Grade (%): 2 (11)
  ALT/AST Elevation ≥G3 (%): 0 (0)
  Constipation All Grade (%): 1 (5)
  Constipation ≥G3 (%): 0 (0)
  Diarrhea All Grade (%): 8 (42)
  Diarrhea ≥G3 (%): 0 (0)
  Fatigue All Grade (%): 7 (37)
  Fatigue ≥G3 (%): 0 (0)
  Hypertension All Grade (%): 3 (16)
  Hypertension ≥G3 (%): 0 (0)
  Mucositis All Grade (%): 2 (11)
  Mucositis ≥G3 (%): 0 (0)
  Nausea/Vomiting All Grade (%): 3 (16)
  Nausea/Vomiting ≥G3 (%): 0 (0)
[4]
  Anemia All Grade (%): 2 (11)
  Anemia ≥G3 (%): 1 (5)
  Neutropenia All Grade (%): 10 (53)
  Neutropenia ≥G3 (%): 5 (26)
  Thrombocytopenia All Grade (%): 2 (11)
  Thrombocytopenia ≥G3 (%): 0 (0)
  Wound Dehiscence All Grade (%): 2 (11)
  Wound Dehiscence ≥G3 (%): 1 (5) ^#
Patients on ritonavir, 4 week on/2 week off schedule
  recommended dose: 37.5 mg/day
Patients on ritonavir, daily, 4 weeks on/2 weeks off
  MTD: 37.5 mg
[3]; gastrointestinal stromal tumors
  rate of grade 3 or 4 neutropenia: 10%
[3]; primitive neuroectodermal tumors
  rate of grade 3 or 4 neutropenia: 16%
[3]; renal cell carcinoma
  rate of grade 3 or 4 neutropenia: 17%
ABCB1
  substrate for ABCB1 drug transporter: substrates
ABCG2
  substrate for ABCG2 drug transporter: substrates

## O=C1Nc2ccc(Cl)cc2[C@@](C#CC2CC2)(C(F)(F)F)O1 [efavirenz]
CYP3A4
  induction of CYP3A4: known inducer

— PMC4038645 (Cancer, 2014)
